The target in the experiment is T1, taspase1 (Homo sapiens, UniProt Q9H6P5).
T1 sequence (Q9H6P5 1-233 limits assumed): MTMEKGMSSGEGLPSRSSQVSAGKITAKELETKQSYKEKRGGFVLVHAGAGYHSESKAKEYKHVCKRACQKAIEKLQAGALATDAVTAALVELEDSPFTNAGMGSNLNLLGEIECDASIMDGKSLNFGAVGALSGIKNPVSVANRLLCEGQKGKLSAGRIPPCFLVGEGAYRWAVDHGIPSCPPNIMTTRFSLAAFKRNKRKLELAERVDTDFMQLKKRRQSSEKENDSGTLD
T1 sequence (Q9H6P5 234-420 limits assumed): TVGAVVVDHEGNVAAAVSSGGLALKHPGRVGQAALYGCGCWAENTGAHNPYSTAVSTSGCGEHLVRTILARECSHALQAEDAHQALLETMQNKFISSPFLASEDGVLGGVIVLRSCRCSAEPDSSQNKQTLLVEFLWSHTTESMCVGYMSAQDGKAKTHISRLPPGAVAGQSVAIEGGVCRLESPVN
As to the kind of experiment: Inhibition rates after different pre-incubation times. The format is biochemical. The following applies: different amounts of pre-incubation time.

For Ac-Ile-Ser-Gln-Leu-Asp-vs [yzm18], the “time dependence of inhibition” value was “inhibition was not time dependent”.

The values are drawn from paper PMC3513416 (Bioorganic & medicinal chemistry letters, 2009).
